From patent US20260199365A1, “BIS-SULFONAMIDE SHIP1 ACTIVATORS” (The Research Foundation for the State University of New York, priority 2022, published 2026)

Assays:
C2-less SHIP1 protein = test: Agonism with SHIP1 protein lacking the C2 domain; type: biochemical; details: C2 domain of the protein deleted
Text: (§1) New small molecule SHIP1 activators are needed to explore the effects of these molecules in IBD and AD model systems to define the role of SHIP in these disorders. […] The K306 structure is related to a series of sulfonamide based endothelial lipase inhibitors. As the molecule came from screening, no information was available about structure activity relationships in this SHIP1 activator. Sulfonamides have been used previously as phosphate mimics in the development of phosphatase inhibitors however, so it is possible that one of the sulfonamides in the K306 structure is mimicking the one of the phosphates on PI(3,4)P2, the endogenous ligand for allosteric activation of SHIP1. […] Given that K306 provides a new class of SHIP1 activators with a unique binding site that could have implications in Crohn's disease and Alzheimer's disease, synthetic studies were initiated on the structure.

microglia = test: Phagolysosomal degradation of synaptosomes and dead neurons by microglia; type: cell-based; details: SHIP1-dependent manner
Text: as §1

[1] = tested on: IL-6 production in BV-2 cells; test: ELISA quantitation of IL-6 production in BV-2 cells after stimulation with LPS; type: cell-based, murine; details: 1 h pretreatment with SHIP1 activator 10 μM, then LPS
Description: FIG. 3 presents an ELISA quantitation of IL-6 production in BV-2 cells after stimulation with LPS. BV-2 cells were plated and treated for 1 h with vehicle (Veh, 0.25% DMSO) or SHIP1 activator (10 μM in Veh) prior to addition of LPS (100 ng/ml). Unstimulated BV2 cells treated with Veh are shown as an additional control to assess LPS induction of IL-6. (A) Evaluation of 1, 26, 29 and 53. (B) In a separate experiment, 70, and 71 were evaluated under similar conditions. Bars indicate Mean G SEM; statistical tests: two-way ANOVA with Tukey correction, **** p<0.0001, ** p<0.01.
Given this experience, some of the new activators were evaluated in a cell-based setting. Using the immortalized BV-2 cell line, which is derived from murine microglia and retains many microglial morphological and functional characteristics of microglia, an assay for the anti-inflammatory effects of these activators was developed. This assay involved treatment of the cells with lipopolysaccharides (LPS) to induce IL-6 production which can then be quantified with an ELISA.
Cell culture: The BV2 cell line was obtained from the ATCC (American Type Culture Collection). The ATCC and performs genetic validation on deposited cell lines. For the inflammatory cytokines production studies, BV2 cells were cultured in DMEM/F12 (Corning) 10% HI FBS at 37° C. and 5% CO2 in a humidified incubator and split 1:6 every 3 days with Cellstripper™ (Corning). Cells were kept at 37° C. and 5% CO2 in a humidified incubator.
ELISA measurements: Parental (scrambled guide control) BV2 cells were seeded at 5×10^5/mL, […] in 48 well plate. Cell were treated with […] small molecule or vehicle control (0.5% DMSO) and incubated for 1 h before addition of stimuli. LPS (10 ng/ml, E. coli O111: B4, Sigma) was added to the cells and incubated for 6 h to detect IL-6 production. Supernatants were spun down at 400×g for 5 minutes to remove cell debris and froze at −20° C. for ELISAs. IL-6 levels were quantified from cellular supernatants with ELISA MAX™ Standard Set Mouse IL-6 kit (Biolegend), following manufacturer's recommendations. We detected absorbance at 450 nm and removed 570 nm background absorbance, with a plate reader (Synergy 2, BioTek). All experiments were repeated three times and each value was reported as mean±SEM from biological replicates in the same assay. All statistical analysis were performed using GraphPad Prism (version 9.2). Two-way ANOVA was used to analyze all data with two independent variables as time and treatment or concentration and treatment, data is reported as Mean+/−SEM.

## Cc1sc(S(=O)(=O)N2CCSCC2)cc1NC(=O)CNS(=O)(=O)c1ccc(F)cc1 [Compound K306, 2-(4-Fluorobenzenesulfonamido)-N-[2-methyl-5-(thiomorpholine-4-sulfonyl)thiophen-3-yl]acetamide]
C2-less SHIP1 protein
  Agonism with C2-less SHIP1 protein: maintained agonism
microglia
  Phagolysosomal degradation of synaptosomes and dead neurons by microglia: enhance phagolysosomal degradation
[1]
  IL-6 production induced by LPS: significantly diminished
